According to patent US20230263822A1, “MODULATION OF FACTOR 11 EXPRESSION” (Ionis Pharmaceuticals, Inc., priority 2008, published 2023):

Assay: Hematology assays in cynomolgus monkeys (Example 45)
Assay type: in vivo
Outline: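 Cynomolgus monkeys (2 male, 3 female per group) dosed subcutaneously with antisense oligonucleotide or PBS, escalating 5, 10, then 25 mg/kg two to three times weekly over 12 weeks; one chronic group held at 10 mg/kg from week 4. Blood sampled weekly; necropsy on day 85.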

[1] = day 8, chronic dose regimen (*)
[2] = day 15, chronic dose regimen (*)
[3] = day 15, escalating dose regimen
[4] = day 22, chronic dose regimen (*)
[5] = day 22, escalating dose regimen
[6] = day 29, chronic dose regimen (*)
[7] = day 29, escalating dose regimen
[8] = day 36, chronic dose regimen (*)
[9] = day 36, escalating dose regimen
[10] = day 43, chronic dose regimen (*)
[11] = day 43, escalating dose regimen
[12] = day 50, chronic dose regimen (*)
[13] = day 50, escalating dose regimen
[14] = day 57, escalating dose regimen
[15] = day 64, escalating dose regimen
[16] = day 71, escalating dose regimen
[17] = day 78, escalating dose regimen
[18] = day 85, escalating dose regimen
[19] = day −5, chronic dose regimen (*)
[20] = day −5, escalating dose regimen
[21] = day −14, chronic dose regimen (*)
[22] = day −14, escalating dose regimen

ISIS 416850: MOE gapmer, nucleobases 1275 to 1318 of SEQ ID NO: 1 (Table 8) (antisense TGCACAGTTTCTGGCAGGCC; MOE gapmer, wing and gap sizes not given here)
MCH (Day 64, escalating dose regimen): 22 pg
MCH (Day 71, escalating dose regimen): 23 pg
MCH (Day 78, escalating dose regimen): 23 pg
MCH (Day 85, escalating dose regimen): 22 pg
basophils (day 8): 0.2%
eosinophils (day 8): 1.1%
lymphocytes (day 8): 39%
monocytes (day 8): 1.8%
neutrophils (day 8): 57%
platelet count (day 8): 548000 µL⁻¹
reticulocytes (day 8): 1.2%
MCH [1]: 23 pg
MCHC [1]: 29 g/dL
MCV [1]: 79 fL
RBC count [1]: 5.5e+06 µL⁻¹
WBC count [1]: 13000 µL⁻¹
basophils [1]: 0.3%
eosinophils [1]: 0.5%
hematocrit [1]: 43%
hemoglobin [1]: 12.5 g/dL
lymphocytes [1]: 44%
monocytes [1]: 1.8%
neutrophils [1]: 53%
platelet count [1]: 401000 µL⁻¹
reticulocytes [1]: 1.1%
MCH (day 8, escalating dose regimen): 23 pg
MCHC (day 8, escalating dose regimen): 29 g/dL
MCV (day 8, escalating dose regimen): 80 fL
RBC count (day 8, escalating dose regimen): 5.4e+06 µL⁻¹
WBC count (day 8, escalating dose regimen): 10000 µL⁻¹
hematocrit (day 8, escalating dose regimen): 43%
hemoglobin (day 8, escalating dose regimen): 12.4 g/dL
basophils (day 15): 0.2%
eosinophils (day 15): 1.0%
lymphocytes (day 15): 38%
monocytes (day 15): 2.0%
neutrophils (day 15): 58%
platelet count (day 15): 559000 µL⁻¹
reticulocytes (day 15): 1.9%
MCH [2]: 23 pg
MCHC [2]: 30 g/dL
MCV [2]: 75 fL
RBC count [2]: 5.3e+06 µL⁻¹
WBC count [2]: 16000 µL⁻¹
basophils [2]: 0.2%
eosinophils [2]: 0.2%
hematocrit [2]: 40%
hemoglobin [2]: 12.2 g/dL
lymphocytes [2]: 24%
monocytes [2]: 1.5%
neutrophils [2]: 73%
platelet count [2]: 396000 µL⁻¹
reticulocytes [2]: 1.0%
MCH [3]: 23 pg
MCHC [3]: 30 g/dL
MCV [3]: 76 fL
RBC count [3]: 5.3e+06 µL⁻¹
WBC count [3]: 9000 µL⁻¹
hematocrit [3]: 40%
hemoglobin [3]: 12.1 g/dL
basophils (day 22): 0.2%
eosinophils (day 22): 0.7%
lymphocytes (day 22): 39%
monocytes (day 22): 2.4%
neutrophils (day 22): 57%
platelet count (day 22): 466000 µL⁻¹
reticulocytes (day 22): 1.9%
MCH [4]: 23 pg
MCHC [4]: 29 g/dL
MCV [4]: 79 fL
RBC count [4]: 5.1e+06 µL⁻¹
WBC count [4]: 15000 µL⁻¹
basophils [4]: 0.1%
eosinophils [4]: 0.5%
hematocrit [4]: 40%
hemoglobin [4]: 11.7 g/dL
lymphocytes [4]: 33%
monocytes [4]: 1.9%
neutrophils [4]: 64%
platelet count [4]: 347000 µL⁻¹
reticulocytes [4]: 1.0%
MCH [5]: 24 pg
MCHC [5]: 28 g/dL
MCV [5]: 83 fL
RBC count [5]: 5e+06 µL⁻¹
WBC count [5]: 10000 µL⁻¹
hematocrit [5]: 41%
hemoglobin [5]: 11.6 g/dL
basophils (day 29): 0.2%
eosinophils (day 29): 1.2%
lymphocytes (day 29): 43%
monocytes (day 29): 2.7%
neutrophils (day 29): 53%
platelet count (day 29): 475000 µL⁻¹
reticulocytes (day 29): 2.5%
MCH [6]: 23 pg
MCHC [6]: 28 g/dL
MCV [6]: 82 fL
RBC count [6]: 5.2e+06 µL⁻¹
WBC count [6]: 14000 µL⁻¹
basophils [6]: 0.3%
eosinophils [6]: 0.8%
hematocrit [6]: 42%
hemoglobin [6]: 12.0 g/dL
lymphocytes [6]: 53%
monocytes [6]: 2.7%
neutrophils [6]: 42%
platelet count [6]: 370000 µL⁻¹
reticulocytes [6]: 1.4%
MCH [7]: 23 pg
MCHC [7]: 28 g/dL
MCV [7]: 83 fL
RBC count [7]: 4.9e+06 µL⁻¹
WBC count [7]: 11000 µL⁻¹
hematocrit [7]: 41%
hemoglobin [7]: 11.5 g/dL
basophils (day 36): 0.3%
eosinophils (day 36): 1.7%
lymphocytes (day 36): 39%
monocytes (day 36): 2.1%
neutrophils (day 36): 57%
platelet count (day 36): 505000 µL⁻¹
reticulocytes (day 36): 2.2%
MCH [8]: 23 pg
MCHC [8]: 30 g/dL
MCV [8]: 76 fL
RBC count [8]: 5.3e+06 µL⁻¹
WBC count [8]: 16000 µL⁻¹
basophils [8]: 0.1%
eosinophils [8]: 0.4%
hematocrit [8]: 41%
hemoglobin [8]: 12.3 g/dL
lymphocytes [8]: 26%
monocytes [8]: 1.5%
neutrophils [8]: 72%
platelet count [8]: 379000 µL⁻¹
reticulocytes [8]: 1.3%
MCH [9]: 23 pg
MCHC [9]: 29 g/dL
MCV [9]: 80 fL
RBC count [9]: 5.3e+06 µL⁻¹
WBC count [9]: 10000 µL⁻¹
hematocrit [9]: 42%
hemoglobin [9]: 12.2 g/dL
basophils (day 43): 0.3%
eosinophils (day 43): 1.2%
lymphocytes (day 43): 45%
monocytes (day 43): 2.6%
neutrophils (day 43): 50%
platelet count (day 43): 490000 µL⁻¹
reticulocytes (day 43): 1.6%
MCH [10]: 23 pg
MCHC [10]: 30 g/dL
MCV [10]: 77 fL
RBC count [10]: 5.2e+06 µL⁻¹
WBC count [10]: 15000 µL⁻¹
basophils [10]: 0.2%
eosinophils [10]: 0.4%
hematocrit [10]: 40%
hemoglobin [10]: 11.8 g/dL
lymphocytes [10]: 36%
monocytes [10]: 1.8%
neutrophils [10]: 61%
platelet count [10]: 391000 µL⁻¹
reticulocytes [10]: 1.0%
MCH [11]: 23 pg
MCHC [11]: 29 g/dL
MCV [11]: 79 fL
RBC count [11]: 5.2e+06 µL⁻¹
WBC count [11]: 9000 µL⁻¹
hematocrit [11]: 40%
hemoglobin [11]: 11.8 g/dL
basophils (day 50): 0.3%
eosinophils (day 50): 1.2%
lymphocytes (day 50): 49%
monocytes (day 50): 3.7%
neutrophils (day 50): 45%
platelet count (day 50): 487000 µL⁻¹
reticulocytes (day 50): 2.7%
MCH [12]: 23 pg
MCHC [12]: 29 g/dL
MCV [12]: 80 fL
RBC count [12]: 5.3e+06 µL⁻¹
WBC count [12]: 15000 µL⁻¹
basophils [12]: 0.2%
eosinophils [12]: 0.3%
hematocrit [12]: 42%
hemoglobin [12]: 11.9 g/dL
lymphocytes [12]: 35%
monocytes [12]: 1.8%
neutrophils [12]: 62%
platelet count [12]: 351000 µL⁻¹
reticulocytes [12]: 1.2%
MCH [13]: 23 pg
MCHC [13]: 28 g/dL
MCV [13]: 83 fL
RBC count [13]: 5.2e+06 µL⁻¹
WBC count [13]: 11000 µL⁻¹
hematocrit [13]: 42%
hemoglobin [13]: 11.8 g/dL
basophils (day 57): 0.4%
eosinophils (day 57): 1.0%
lymphocytes (day 57): 45%
monocytes (day 57): n.d.3.2%
neutrophils (day 57): 49%
platelet count (day 57): 528000 µL⁻¹
reticulocytes (day 57): 2.0%
MCH [14]: 23 pg
MCHC [14]: 29 g/dL
MCV [14]: 80 fL
RBC count [14]: 5.2e+06 µL⁻¹
WBC count [14]: 11000 µL⁻¹
hematocrit [14]: 42%
hemoglobin [14]: 12.1 g/dL
basophils (day 64): 0.4%
eosinophils (day 64): 1.3%
lymphocytes (day 64): 53%
monocytes (day 64): n.d.3.5%
neutrophils (day 64): 41%
platelet count (day 64): 496000 µL⁻¹
reticulocytes (day 64): 1.7%
MCHC [15]: 29 g/dL
MCV [15]: 79 fL
RBC count [15]: 5.4e+06 µL⁻¹
WBC count [15]: 11000 µL⁻¹
hematocrit [15]: 43%
hemoglobin [15]: 12.3 g/dL
basophils (day 71): 0.3%
eosinophils (day 71): 1.8%
lymphocytes (day 71): 61%
monocytes (day 71): n.d.4.7%
neutrophils (day 71): 27%
platelet count (day 71): 465000 µL⁻¹
reticulocytes (day 71): 1.8%
MCHC [16]: 28 g/dL
MCV [16]: 80 fL
RBC count [16]: 5.4e+06 µL⁻¹
WBC count [16]: 15000 µL⁻¹
hematocrit [16]: 43%
hemoglobin [16]: 12.3 g/dL
basophils (day 78): 0.3%
eosinophils (day 78): 1.0%
lymphocytes (day 78): 51%
monocytes (day 78): n.d.4.5%
neutrophils (day 78): 42%
platelet count (day 78): 449000 µL⁻¹
reticulocytes (day 78): 1.8%
MCHC [17]: 29 g/dL
MCV [17]: 79 fL
RBC count [17]: 5.3e+06 µL⁻¹
WBC count [17]: 12000 µL⁻¹
hematocrit [17]: 41%
hemoglobin [17]: 12.2 g/dL
basophils (day 85): 0.3%
eosinophils (day 85): 1.2%
lymphocytes (day 85): 34%
monocytes (day 85): n.d.3.5%
neutrophils (day 85): 60%
platelet count (day 85): 458000 µL⁻¹
reticulocytes (day 85): 2.3%
MCHC [18]: 30 g/dL
MCV [18]: 77 fL
RBC count [18]: 5.5e+06 µL⁻¹
WBC count [18]: 15000 µL⁻¹
hematocrit [18]: 42%
hemoglobin [18]: 12.7 g/dL
basophils (day −5): 0.2%
eosinophils (day −5): 1.6%
lymphocytes (day −5): 43%
monocytes (day −5): 2.8%
neutrophils (day −5): 52%
platelet count (day −5): 573000 µL⁻¹
reticulocytes (day −5): 1.2%
MCH [19]: 23 pg
MCHC [19]: 30 g/dL
MCV [19]: 78 fL
RBC count [19]: 5.5e+06 µL⁻¹
WBC count [19]: 15000 µL⁻¹
basophils [19]: 0.3%
eosinophils [19]: 0.7%
hematocrit [19]: 43%
hemoglobin [19]: 12.8 g/dL
lymphocytes [19]: 43%
monocytes [19]: 2.4%
neutrophils [19]: 53%
platelet count [19]: 434000 µL⁻¹
reticulocytes [19]: 0.8%
MCH [20]: 23 pg
MCHC [20]: 30 g/dL
MCV [20]: 77 fL
RBC count [20]: 5.5e+06 µL⁻¹
WBC count [20]: 13000 µL⁻¹
hematocrit [20]: 43%
hemoglobin [20]: 12.7 g/dL
basophils (day −14): 0.2%
eosinophils (day −14): 1.0%
lymphocytes (day −14): 47%
monocytes (day −14): 2.3%
neutrophils (day −14): 49%
platelet count (day −14): 528000 µL⁻¹
reticulocytes (day −14): 1.7%
MCH [21]: 24 pg
MCHC [21]: 29 g/dL
MCV [21]: 81 fL
RBC count [21]: 5.5e+06 µL⁻¹
WBC count [21]: 15000 µL⁻¹
basophils [21]: 0.2%
eosinophils [21]: 0.5%
hematocrit [21]: 44%
hemoglobin [21]: 12.8 g/dL
lymphocytes [21]: 47%
monocytes [21]: 2.9%
neutrophils [21]: 48%
platelet count [21]: 387000 µL⁻¹
reticulocytes [21]: 1.1%
MCH [22]: 23 pg
MCHC [22]: 30 g/dL
MCV [22]: 78 fL
RBC count [22]: 5.3e+06 µL⁻¹
WBC count [22]: 13000 µL⁻¹
hematocrit [22]: 41%
hemoglobin [22]: 12.4 g/dL
